Several values for one entry are separate records, joined by “and”; a condition that tells them apart may be missing. Equal entries are not always repeated. Where two headings read alike, the source gives them in different places.

For one data set, the system named is A375 cells. As to the kind of experiment: Flow cytometry cell cycle (G2/M) and apoptosis (sub-G1) analysis, A375. It counts as cell-based, human. Particulars: for EC50: Homo sapiens; for reduction of apoptosis induced by paclitaxel: A375, paclitaxel 25 ng/ml, PD98059 20 μM, U0126 30 μM, SB203580 1 μM. On the procedure: Flow Cytometry Analysis: A375 and NCTC2544 adherent cells were trypsinized, mixed with floating cells, washed with PBS and permeabilised in 70% (vol/vol) ethanol/PBS solution at 4° C. for at least 24 hours. Jurkat, HeL023 and PBMC cells were centrifuged for 10 minutes at 1000×g. The cell pellet was then resuspended and permeabllised in 70% (vol/vol) ethanol/PBS solution at 4° C. for at least 24 hours. The cells were washed with PBS and the DNA was stained with a PBS solution, containing 20 μg/ml of propidium iodide and 100 μg/ml of RNAse, at room temperature for 30 minutes. Cells were analysed by FACScan (Becton-Dickinson) and the content of DNA was evaluated by the Cell-LISYS program (Becton-Dickinson). Cell distribution among cell cycle phases and apoptotic cells was evaluated as previously described (Secchiero et al., 2001). Briefly, the cell cycle distribution is shown as the percentage of cells containing 2n (G1 phase), 4n (G2 and M phases), 4n>x>2n. DNA amount (S phase) judged by propidium iodide staining. The apoptotic population is the percentage of cells with DNA content lower than 2n.
After 24 hours, cells were collected for flow cytometry analysis. PD 98059 was used at 20 uM as an inhibitor of MEK to prevent MEK-1 activation. […]
EC50 values were obtained by analysing G2/M accumulation dose response curve. ECMAX values were obtained by analysing sub-G1 accumulation dose response curve. Paclitaxel values have units of ng/ml.
On the technique in general: A flow cytometer gives signals particle by particle.

A further data set deals with P-gp (Homo sapiens, UniProt P08183). The data set is classed as cell-based. Particulars: for % of Rh123 Negative Cells (cells expressing P-gp activity): HeL023 cells. How it is done:
Rhodamine 123 Efflux Assay: 5×10^5 cells from each subline were loaded with 50 ng/ml of rhodamine 123 for 30 minutes at 37 C in medium. The cells were washed and resuspended in dye-staining agent free medium for 3 hours at 37 C. to allow rhodamine 123 efflux. The cells were then washed twice and the fluorescence of intracellular rhodamine 123 were analysed with Flow cytometer (residual fluorescence FRES). The fluorescence was compared with loaded cells maintained at 4 C. to prevent drug export (maximal fluorescence FMAX). […] Cells from each subline that were not being exposed to rhodamine 123 were used as negative controls.
Rhodamine 123 (Rh123) retention, a P-gp functional assay, was studied in all cell lines. This assay was performed by incubating cells with Rh123 and determining Rh123 accumulation by measuring its fluorescence. The maximum load of Rh123 (FMAX) was quantified at the end of treatment harvesting the cells and storing them at 4° C. to prevent any active Rh123 efflux. The P-gp drug efflux was allowed incubating Rh123-loaded cells in fresh new medium Rh123-free for 3 hours at 37° C. After this incubation, residual fluorescence (FRES) was measured and compared to FMAX.

In a further data set the test system is HIF-1α. As to the kind of experiment: HIF-1α protein immunoblot in hypoxic cells. Particulars: A375; for effect on Cl-IB-MECA-induced increase of HIF-1α protein expression / effect on adenosine-induced HIF-1α protein expression: hypoxia 4 hours; for effect on Cl-IB-MECA-induced increase of HIF-1α protein expression: Cl-IB-MECA 100 nM, U0126 10 and 30 μM, SB202190 1 and 10 μM; for effect on adenosine-induced HIF-1α protein expression: adenosine 100 μM, antagonist 100 nM. The data set is classed as cell-based, human. How it is done: Cell culture and hypoxia treatment: Cells were maintained in DMEM (A375), EMEM (NCTC 2544) or RPMI 1640 (U87MG, U2OS) medium containing 10% fetal calf serum, penicillin (100 U/ml), streptomycin (100 ug/ml), and L-glutamine (2 mM) at 37° C. in 5% CO2/95% air. Cells were passaged two or three times weekly at a ratio between 1:5 and 1:10. Hypoxic exposure was in BBL™ GasPak pouch™ System (Becton Dickinson) that reduce oxygen concentration of less than 2% within 2 hours of incubation at 35° C.
Cells were harvested and washed with ice-cold PBS containing 1 mM sodium orthovanadate, AEBSF 104 mM, aprotinin 0.08 mM, leupeptin 2 mM, bestatin 4 mM, pepstatin A 1.5 mM, E-64 1.4 mM. Cells were then lysed in Triton lysis buffer. The protein concentration was determined using BCA protein assay kit (Pierce). […] The gel was then electroblotted onto a nitrocellulose membrane. Membranes were blocked with 5% nonfat dry milk in PBS containing 0.1% Tween-20 and incubated with antibodies against HIF-1α (1:250 dilution) and HIF-1β (1:1000 dilution) in 5% nonfat dry milk in PBS/0.1% Tween-20 overnight at 4° C. Aliquots of total protein sample (50 ug) were analyzed using antibodies specific for phosphorylated (Thr183/Tyr185) or total p44/p42 MAPK (1:5000 dilution), phosphorylated (Thr180/Tyr182) or total p38 MAPK (1:1000 dilution) and for A3 receptor (1 µg/ml dilution). Filters were washed and incubated for 1 hour at room temperature with peroxidase-conjugated secondary antibodies against mouse and rabbit IgG (1:2000 dilution). […] The membranes were then stripped and reprobed with tubulin (1:250) to ensure equal protein loading.
U0126 was used at 10 and 30 uM as inhibitor of MEK-1 and MEK-2 to prevent p44 and p42 MAPK activation. SB202190 was used at 1 and 10 uM as inhibitor of p38 MAPK.
Densitometry analysis: The intensity of each band in immunoblot assay was quantified using molecular analyst/PC densitometry software (Bio-Rad). […] The data were presented as the mean±S.E., and analyzed by the Student's test.
Background: Immunoblotting shows a protein as a band on a membrane.

In a further data set the test system is Human Melanoma A375. As to the kind of experiment: MTT growth inhibitory assay, A375. Particulars: A375 cells. (Formazan colour is commonly taken as a measure of viable cells.)
Data set [1] has as its system Human Colon Carcinoma HT29. Briefly: MTT growth inhibitory assay, HT29. It counts as cell-based. The settings on record: for Enhancement Factor: HT29 cells, A3 antagonist at 0.5 μg/ml. On the procedure: (§1) Interpretation of the EF is dependent upon the concentrations of A3 receptor antagonist tested. For example, when using very low concentrations of A3 receptor antagonist, any EF above 1.0 is synergistic if the A3 receptor antagonist concentration is below the threshold of cell growth inhibition.
(§2) The cells are sub-cultured twice a week.
(§3) Vinblastine sulfate salt was obtained from Sigma Chemical Co., (V1377). Irinotecan was diluted with culture medium. All other agents were dissolved in 100% DMSO at appropriate concentrations. The DMSO stock solutions were diluted 100-fold with growth medium so that the final DMSO concentration was 1%.

Data set [2] deals with Human Lung Carcinoma SKMES. Briefly: MTT growth inhibitory assay, SKMES. The data set is classed as cell-based. Particulars: SKMES cells, A3 antagonist at 0.5 μg/ml. On the procedure: as §1, §2, §3
The test system of data set [3] is Human Pancreatic Cancer Panc-1. As to the kind of experiment: MTT growth inhibitory assay, Panc-1. The data set is classed as cell-based. The settings on record: Panc-1 cells, A3 antagonist at 0.5 μg/ml. How it is done:
as §1, §2, §3

For data set [4] the following is noted: administered at 100 mg/m^2; cited from earlier work.

Sequence of P-gp (P08183 whole entry): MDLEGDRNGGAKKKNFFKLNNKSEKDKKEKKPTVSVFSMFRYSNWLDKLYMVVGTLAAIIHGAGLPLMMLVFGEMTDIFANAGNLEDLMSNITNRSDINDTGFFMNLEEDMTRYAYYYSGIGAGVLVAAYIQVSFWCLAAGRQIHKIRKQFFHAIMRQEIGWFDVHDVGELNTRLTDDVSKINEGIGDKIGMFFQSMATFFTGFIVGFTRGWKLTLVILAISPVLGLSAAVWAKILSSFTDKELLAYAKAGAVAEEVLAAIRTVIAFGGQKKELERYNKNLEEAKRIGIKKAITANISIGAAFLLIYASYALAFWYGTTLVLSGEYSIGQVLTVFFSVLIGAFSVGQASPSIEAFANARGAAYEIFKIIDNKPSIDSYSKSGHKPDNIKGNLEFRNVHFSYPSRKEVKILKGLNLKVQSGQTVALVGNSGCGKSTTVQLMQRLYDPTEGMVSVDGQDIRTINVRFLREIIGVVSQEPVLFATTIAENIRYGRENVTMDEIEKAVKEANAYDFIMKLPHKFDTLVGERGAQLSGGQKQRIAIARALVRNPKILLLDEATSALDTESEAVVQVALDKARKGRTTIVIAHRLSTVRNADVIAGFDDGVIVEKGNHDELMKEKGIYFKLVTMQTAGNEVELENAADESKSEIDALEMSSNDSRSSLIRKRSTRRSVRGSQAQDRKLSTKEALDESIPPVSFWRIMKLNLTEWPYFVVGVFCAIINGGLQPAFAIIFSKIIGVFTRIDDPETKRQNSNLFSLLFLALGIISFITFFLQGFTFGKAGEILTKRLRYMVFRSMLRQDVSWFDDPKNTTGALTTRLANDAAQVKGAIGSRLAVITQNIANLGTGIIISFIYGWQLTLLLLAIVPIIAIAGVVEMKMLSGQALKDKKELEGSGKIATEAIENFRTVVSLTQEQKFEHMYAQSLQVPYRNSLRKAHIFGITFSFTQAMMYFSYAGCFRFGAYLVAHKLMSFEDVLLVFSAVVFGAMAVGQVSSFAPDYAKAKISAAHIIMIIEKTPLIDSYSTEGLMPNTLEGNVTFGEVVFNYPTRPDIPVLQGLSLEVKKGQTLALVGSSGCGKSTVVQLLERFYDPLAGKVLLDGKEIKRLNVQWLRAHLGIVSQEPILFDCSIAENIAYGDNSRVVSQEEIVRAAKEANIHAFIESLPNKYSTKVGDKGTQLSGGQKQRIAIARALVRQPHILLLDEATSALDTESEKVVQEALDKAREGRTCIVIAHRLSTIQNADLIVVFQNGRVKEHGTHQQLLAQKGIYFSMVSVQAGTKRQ

Take `Nc1nc2ccc(Cl)cc2c2nc(-c3ccco3)nn12` [CGS 15943, 5-amino-9-chloro-2-(furyl)1,2,4-triazolo[1,5-c]quinazoline, reference compound]: the EC50 in the data set with A375 cells (A-375, read-out: SEC50) was 12600 ± 1410 nM. The “% of Rh123 Negative Cells (cells expressing P-gp activity)” value on P-gp (70 μM) turned out to be 87.1 ± 1.0%.
On to `N#CC(=C(/N)Sc1ccccc1N)/C(C#N)=C(\N)Sc1ccccc1N` [Compound U0126], for which, in the data set with HIF-1α, the “effect on Cl-IB-MECA-induced increase of HIF-1α protein expression” value is reported as “able to inhibit”. In the data set with A375 cells, the “reduction of apoptosis induced by paclitaxel” value is on record as 73±10%. Further, the “effect on MRE 3008F20 blockade of P-gp” value on P-gp (A375, U0126 30 μM 30 minutes, then MRE3008F20 10 μM) is reported as “failed to prevent MRE 3008F20 blockade of P-gp”.
With `CCN(CC)c1ccc(NC(=O)Nc2nc3nn(C)cc3c3nc(-c4ccco4)nn23)cc1.Cl` [IL-10, N-1-(4-diethylamino-phenyl)-N′—S-[8-methyl-2-(2-furyl)-pyrazolo[4,3-e]1,2,4-triazolo[1,5-c]pyrimidine]-urea], the “Enhancement Factor” value in the data set with Human Melanoma A375 (enhancement of docetaxel IC50, A3 antagonist at 0.5 μg/ml) was 8.4; with Human Melanoma A375 (enhancement of docetaxel IC50, A3 antagonist at 5 μg/ml), 2.9; in the data set with Human Melanoma A375 (enhancement of paclitaxel IC50, A3 antagonist at 0.5 μg/ml), 3.7; in the data set with Human Melanoma A375 (enhancement of paclitaxel IC50, A3 antagonist at 5 μg/ml) it was 8.8 and 9.2; in data set [1] (enhancement of docetaxel IC50), 5.5; in data set [1] (enhancement of doxorubicin IC50), 1.5. Further, the “Enhancement Factor” value in data set [1] (enhancement of irinotecan IC50) is reported as 1.2; in data set [1] (enhancement of paclitaxel IC50), 2.5; in data set [2] (enhancement of docetaxel IC50), 2.8; in data set [2] (enhancement of irinotecan HCL IC50) it was 1.7; in data set [2] (enhancement of paclitaxel IC50), 2.8; in data set [2] (enhancement of vinblastine IC50), 1.4. Moreover, the entries for the “Enhancement Factor” value in data set [3] (enhancement of docetaxel IC50) and in data set [3] (enhancement of paclitaxel IC50) were 1.4 and 1.7, respectively. Moreover, the “% of Rh123 Negative Cells (cells expressing P-gp activity)” value at P-gp (10 μM) came to 0.4 ± 0.2%.
Consider `CCCn1c(=O)c2[nH]c(-c3cc(OCC(=O)Nc4ccc5c(c4)OCO5)nn3C)nc2n(CCC)c1=O` [MRE 2029F20], for which the “effect on adenosine-induced HIF-1α protein expression” value in the data set on HIF-1α was “not able to prevent”.
For `Cn1cc2c(nc(NC(=O)Nc3ccncc3)n3nc(-c4ccco4)nc23)n1` [MRE 3005F20], the “effect on Cl-IB-MECA-induced HIF-1α modulation” value in the data set with HIF-1α (hypoxia, antagonist 10 and 100 nM, Cl-IB-MECA 10 and 100 nM) is “able to abrogate the effect of Cl-IB-MECA”.
On to `Cc1ccc(NC(=O)Nc2nc3nn(C)cc3c3nc(-c4ccco4)nn23)cc1` [MRE 3046F20, 5-N-(4-methylphenyl-carbamoyl)amino-8-methyl-2(2-furyl)-pyrazolo-[4,3e]-1,2,4-triazolo[1,5-c]pyrimidine], for which the EC50 with A375 cells (A-375, read-out: SEC50) was 570 ± 60 nM. Moreover, the “% of Rh123 Negative Cells (cells expressing P-gp activity)” value at P-gp (10 μM) was 22.0 ± 1.0%.
Consider `CCCn1cc2c(nc(NC(=O)Nc3ccccc3)n3nc(-c4ccco4)nc23)n1` [MRE 3055F20, 5-N-(4-phenylcarbamoyl)amino-8-propyl-2(2furyl)-pyrazolo[4,3e]-1,2,4-triazolo-[1,5c]pyrimidine], for which, in the data set on A375 cells (A-375, read-out: SEC50), the EC50 was determined as 310 ± 30 nM. Further, the “% of Rh123 Negative Cells (cells expressing P-gp activity)” value on P-gp (10 μM) amounted to 0.8 ± 0.2%.
As to `Oc1ccc(-c2nc(-c3ccncc3)c(-c3ccc(F)cc3)[nH]2)cc1` [SB202190], the “effect on Cl-IB-MECA-induced increase of HIF-1α protein expression” value in the data set with HIF-1α was “able to inhibit”.
As for `C[S+]([O-])c1ccc(-c2nc(-c3ccncc3)c(-c3ccc(F)cc3)[nH]2)cc1` (stereo not shown) [SB203580], the “reduction of apoptosis induced by paclitaxel” value in the data set on A375 cells is given as “did not exert any effect”.
With `Nc1nc2c(cnn2CCc2ccccc2)c2nc(-c3ccco3)nn12` [SCH 58261, 5-amino-7-(2-phenylethyl)-2-(2-furyl)-pyrazolo[4,3-e]-1,2,4-triazolo[1,5-c]pyrimidine], in the data set with HIF-1α, the “effect on adenosine-induced HIF-1α protein expression” value was “not able to prevent”.
As to `CC(=O)O[C@@]12CO[C@@H]1C[C@H](O)[C@@]1(C)C(=O)[C@H](O)C3=C(C)[C@@H](OC(=O)[C@H](O)[C@@H](NC(=O)OC(C)(C)C)c4ccccc4)C[C@@](O)([C@@H](OC(=O)c4ccccc4)[C@H]21)C3(C)C` [docetaxel], in data set [4], the “acute hypersensitivity reaction, % of patients” value was 13% and the “severe hypersensitivity reaction, % of patients” value was 1.2%.
Take `COc1cccc2c1C(=O)c1c(O)c3c(c(O)c1C2=O)C[C@@](O)(C(=O)CO)C[C@@H]3O[C@H]1C[C@H](N)[C@H](O)[C@H](C)O1` [doxorubicin, reference compound]: the “fold more refractory, HT29 vs A375 cell line (IC50)” value in data set [1] was “approximately 30 fold”.
With `O=C1c2c(O)ccc(O)c2C(=O)c2c(NCCNCCO)ccc(NCCNCCO)c21` [mitoxantrone, reference compound], the “fold more refractory, HT29 vs A375 cell line (IC50)” value in data set [1] was “approximately 30 fold”.
With `CC[C@]1(O)C[C@@H]2CN(CCc3c([nH]c4ccccc34)[C@@](C(=O)OC)(c3cc4c(cc3OC)N(C)[C@H]3[C@@](O)(C(N)=O)[C@H](O)[C@]5(CC)C=CCN6CC[C@]43[C@@H]65)C2)C1` [vindesine], the EC50 in the data set on A375 cells (A-375, 24 h, read-out: EC50 (G2/M accumulation)) amounted to 1.9 ± 0.2 nM.

Source of the values: US20060204502A1 (priority 2004, published 2006).
